Here are results for four compounds from patent publication US10150739B2, “Crystalline form of androgen receptor inhibitor and preparation method thereof” (priority 2015, dated 2018).

Read-outs that look alike come from different tables or passages of the source.

Series [1] is classed as physicochemical. On the procedure:
The compound of formula (I) (0.5 g, 1.04 mmol) (prepared according to Example 1) and the compound of formula (I) (0.5 g, 1.04 mmol) (prepared according to Example 11) were added to a 25 mL one-necked flask, followed by addition of 4.0 mL of ethyl acetate-isopropyl ether (v:v=1:1). The mixture was pulped at room temperature, then filtered and dried to obtain a solid (872 mg, yield: 87.2%).
The compound of formula (I) (0.5 g, 1.04 mmol) (prepared according to Example 1) and the compound of formula (I) (0.5 g, 1.04 mmol) (prepared according to Example 12) were added to a 25 mL one-necked flask, followed by addition of 4.0 mL of ethyl acetate-isopropyl ether (v:v=1:1). The mixture was pulped at room temperature, then filtered and dried to obtain a solid (850 mg, yield: 85.0%).

Series [2] is classed as physicochemical. On the procedure: Samplings were carried out on Day 5 and Day 10.
The source holds these as a separate data set.

Series [3] is classed as physicochemical. This is another data set of the same source.
Series [4] is classed as physicochemical. Conditions: for Crystal form / Purity: 25° C., RH 60%. On the procedure: The sample was placed under conditions of 25° C., RH 60% for a long period of time, and regular sampling was carried out to determine the purity.
Series [5] has as its target T1, AR (Homo sapiens, UniProt P10275).
T1 sequence (P10275 1-920): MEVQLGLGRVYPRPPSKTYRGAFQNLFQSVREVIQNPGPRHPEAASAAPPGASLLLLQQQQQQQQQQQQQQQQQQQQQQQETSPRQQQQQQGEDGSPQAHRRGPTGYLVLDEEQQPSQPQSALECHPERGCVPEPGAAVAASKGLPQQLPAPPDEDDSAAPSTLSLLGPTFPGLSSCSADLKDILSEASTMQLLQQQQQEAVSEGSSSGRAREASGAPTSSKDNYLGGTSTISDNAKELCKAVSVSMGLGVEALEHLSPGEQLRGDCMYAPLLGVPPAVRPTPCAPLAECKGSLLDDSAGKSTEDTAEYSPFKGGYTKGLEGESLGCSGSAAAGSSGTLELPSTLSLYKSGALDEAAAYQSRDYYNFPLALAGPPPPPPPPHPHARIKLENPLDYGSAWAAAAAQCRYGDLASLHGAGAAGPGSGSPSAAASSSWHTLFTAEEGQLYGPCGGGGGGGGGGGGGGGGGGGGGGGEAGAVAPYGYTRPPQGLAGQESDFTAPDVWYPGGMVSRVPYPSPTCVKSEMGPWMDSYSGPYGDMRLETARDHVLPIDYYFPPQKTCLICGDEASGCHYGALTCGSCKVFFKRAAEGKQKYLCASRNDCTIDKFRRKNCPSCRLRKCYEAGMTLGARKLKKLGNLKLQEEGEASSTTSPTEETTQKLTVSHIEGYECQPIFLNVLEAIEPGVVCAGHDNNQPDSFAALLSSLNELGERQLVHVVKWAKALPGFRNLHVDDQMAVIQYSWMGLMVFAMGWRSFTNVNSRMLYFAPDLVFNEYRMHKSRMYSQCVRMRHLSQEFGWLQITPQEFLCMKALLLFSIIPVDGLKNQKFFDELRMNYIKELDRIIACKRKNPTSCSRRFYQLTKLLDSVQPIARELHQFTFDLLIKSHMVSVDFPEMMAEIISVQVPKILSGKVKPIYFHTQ
Conditions: compared with MDV-3100; cited from earlier work.

For series [6], the target named is T1, AR. Particulars: cited from earlier work.
A further series has as its target hERG (Homo sapiens, UniProt Q12809). Particulars: cited from earlier work.
Series [7] relates to five major subtypes of CYP450. Particulars: cited from earlier work.
The conditions of series [8]: rat; cited from earlier work.
For series [9] the following is noted: dog; cited from earlier work.
For series [10] the following is noted: mouse, in vivo; cited from earlier work.
Series [11] has as its system AIPC. Conditions: mouse; cited from earlier work.
For series [12], the system named is AIPC. Conditions: human; cited from earlier work.

hERG, sequence (Q12809 whole entry): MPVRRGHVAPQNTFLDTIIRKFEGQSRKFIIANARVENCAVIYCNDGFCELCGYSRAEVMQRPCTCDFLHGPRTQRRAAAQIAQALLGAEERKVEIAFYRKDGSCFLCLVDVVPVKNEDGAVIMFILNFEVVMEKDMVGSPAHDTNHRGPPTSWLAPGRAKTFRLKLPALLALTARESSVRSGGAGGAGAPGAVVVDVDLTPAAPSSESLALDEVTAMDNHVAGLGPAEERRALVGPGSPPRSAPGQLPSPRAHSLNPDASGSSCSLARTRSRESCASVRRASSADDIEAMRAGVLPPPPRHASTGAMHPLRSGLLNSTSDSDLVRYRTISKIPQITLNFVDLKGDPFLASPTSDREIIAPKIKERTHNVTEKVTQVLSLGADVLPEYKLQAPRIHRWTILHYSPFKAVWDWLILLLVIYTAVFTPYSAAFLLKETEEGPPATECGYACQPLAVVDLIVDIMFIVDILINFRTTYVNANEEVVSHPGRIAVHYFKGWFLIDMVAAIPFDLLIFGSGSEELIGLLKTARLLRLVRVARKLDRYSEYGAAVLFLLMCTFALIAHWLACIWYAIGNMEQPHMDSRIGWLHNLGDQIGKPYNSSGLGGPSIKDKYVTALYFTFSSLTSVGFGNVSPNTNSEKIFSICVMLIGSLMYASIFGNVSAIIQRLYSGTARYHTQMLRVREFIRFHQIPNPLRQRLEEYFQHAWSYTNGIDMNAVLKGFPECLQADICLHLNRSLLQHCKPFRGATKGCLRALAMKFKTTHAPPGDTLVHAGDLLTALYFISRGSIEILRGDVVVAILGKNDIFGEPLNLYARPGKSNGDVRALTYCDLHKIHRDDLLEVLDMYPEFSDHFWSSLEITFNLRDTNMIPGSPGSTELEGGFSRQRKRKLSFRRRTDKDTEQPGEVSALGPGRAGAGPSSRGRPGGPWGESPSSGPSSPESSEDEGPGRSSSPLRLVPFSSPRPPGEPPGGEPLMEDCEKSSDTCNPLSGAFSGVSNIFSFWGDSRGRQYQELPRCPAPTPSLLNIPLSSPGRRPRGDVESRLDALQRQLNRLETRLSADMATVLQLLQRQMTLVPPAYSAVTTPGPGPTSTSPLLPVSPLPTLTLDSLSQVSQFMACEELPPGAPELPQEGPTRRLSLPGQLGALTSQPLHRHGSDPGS

For `CC1(C)C(=O)N(c2ccc(C#N)c(C(F)(F)F)c2)C(=S)N1c1ccc(OC[C@@H](O)CO)cc1` [crystal form III], the crystal form transformation result in series [1] (pulped with crystal form I in ethyl acetate-isopropyl ether (v:v=1:1) at room temperature) is recorded as “can be transformed into crystal form I”.
Regarding `CC1(C)C(=O)N(c2ccc(C#N)c(C(F)(F)F)c2)C(=S)N1c1ccc(OC[C@@H](O)CO)cc1` [Crystal form I, (S)-4-(3-(4-(2,3-dihydroxypropoxy)phenyl)-4,4-dimethyl-5-carbonyl-2-thioimidazolin-1-yl)-2-(trifluoromethyl)benzonitrile], the “purity as detected by HPLC” value came out at 99.93% in series [2] (40° C., day 0); 99.91% in series [2] (40° C., day 5); 99.91% in [2] (40° C., day 10); 99.93% in series [2] (60° C., day 0); 99.92% in [2] (60° C., day 5); 99.90% in series [2] (60° C., day 10). For the same compound, the “purity as detected by HPLC” value in series [2] (Lighting (4500 Lux), day 0) is listed as 99.93%; in series [2] (Lighting (4500 Lux), day 5) it was 99.91%; in [2] (Lighting (4500 Lux), day 10) it was 99.91%; in series [2] (RH 75%, day 0), 99.93%; in series [2] (RH 75%, day 5), 99.89%; in [2] (RH 75%, day 10), 99.91%. Besides, the “purity as detected by HPLC” value in series [2] (RH 90%, day 0) is reported as 99.93%; in [2] (RH 90%, day 5), 99.92%; in series [2] (RH 90%, day 10), 99.92%. Besides, the DSC peak was 158.26 °C in series [3] (after grinding treatment for 10 minutes), 158.17 °C in series [3] (after heating treatment for 3 hours at 80° C.) and 158.33 °C in series [3] (after pressing treatment). Also, the Crystal form entry in [4] (0 month), in series [4] (6 months) and in series [4] (36 months) was “Crystal form I” in each case. The Purity stood at 99.93% in series [4] (0 month); 99.93% in [4] (6 months); 99.93% in series [4] (12 months); 99.93% in [4] (24 months); 99.94% in series [4] (36 months). Besides, the long-term storage stability entry in series [4] (36 months) is “stable after placing under such conditions for 36 months”. The “relative stability of crystal forms” value in series [1] is given as “more stable”.
On to `CC1(C)C(=O)N(c2ccc(C#N)c(C(F)(F)F)c2)C(=S)N1c1ccc(OC[C@@H](O)CO)cc1` [compound of formula (I), (S)-4-(3-(4-(2,3-dihydroxypropoxy)phenyl)-4,4-methyl-5-carbonyl-2-thioimidazolin-1-yl)-2-(trifluoromethyl)benzonitrile], for which, on AR [5], the activity in vitro entry is listed as “slightly better than that of MDV-3100”. The AR agonist activity result on AR [6] (at 3 μM) and on AR [6] (at 10 μM) was “no AR agonist activity” each time. Moreover, the results for the 50% inhibitory concentration (IC50) (at hERG; in [7]) were 24.8 µM and greater than 50 µM, respectively. Further, the in vivo exposure result was “comparable to that of MDV-3100” in [8] and “more than six times that of MDV-3100” in series [9]. Further, the “ratio of drug concentration in brain tissue to drug concentration in plasma” value in series [10] is on record as “much lower than that of MDV-3100”.
Take `CNC(=O)c1ccc(N2C(=S)N(c3ccc(C#N)c(C(F)(F)F)c3)C(=O)C2(C)C)cc1F` [MDV-3100]: the “inhibition of growth of AIPC” value in the series on AIPC [11] and with AIPC [12] was “can inhibit the growth of AIPC” each time.

Broadly, the IC50 is the midpoint of a concentration-inhibition curve.
